Reference: patent US9902735B2, “Heteroaryl substituted compounds as RORγ inhibitors” (GlaxoSmithKline Intellectual Property Developement Limited, priority 2014, dated 2018)

Key:
C57BL/6NTac mice [1] = test: Imiquimod-induced skin inflammation, ear-only model (ear thickness); assay type: in vivo, mouse; settings: for imiquimod-induced ear thickening: oral gavage twice daily, Studies 1-4
Excerpt: (§1) Imiquimod is an immune modifying agent that potently activates specific Toll-like receptors (e.g., TLR7) and induces irritation/inflammation of the skin that requires the IL23R/RORγ/IL17 axis of the immune system (van der Fits et al, (2009) J Immunol; 182:5836-5845; Gray et al, (2013) Nature Immunol; June; 14(6):584-92). The imiquimod-induced skin inflammation model can be used to assess the ability of an RORγ inhibitor to reduce Th17-driven inflammation in mice. For the ear-only skin inflammation model in which ear thickness was measured with digital engineer's calipers (Mitutoyo PK-0505), female wild type C57BL/6NTac mice obtained from Taconic (Hudson, N.Y.) at 8 to 12 wk of age received a daily topical dose of 10 mg of commercially available imiquimod cream (5%) (Aldara; Medicis) distributed over both ears at approximately 11:00 h for up to 4 consecutive days. Alternatively, 72 mg of Aldara was distributed over both ears and the shaved/depiliated back skin of mice at approximately 11:00 h for 3 consecutive days to examine RORγ-dependent gene expression (RNA isolated from both ears using Qiazol followed by clean-up on with the RNeasy protocol (Qiagen, Germantown, Md.); Taqman probe/primer sets for B2M (Mm00437762_ml), IL-17A (Mm00439619_ml), IL-17F (Mm00521423_ml), or IL-22 (Mm00444241_ml) (Thermo Fisher Scientific, Inc., Waltham, Mass.) and ex vivo stimulated (anti-CD3 (2 μg/ml, clone eBio500A2, eBioscience, San Diego, Calif.), anti-CD28 (1 μg/ml, clone 37.51, BD Bioscience, San Jose, Calif.), recombinant mouse IL-13 (20 ng/ml, R&D Systems, Minneapolis, Minn.), and recombinant mouse IL-23 (20 ng/ml, R&D Systems, Minneapolis, Minn.) IL-17A protein expression from whole blood (Meso Scale Discovery, Rockville, Md.). For treatment of the skin inflammation in these models, each compound or vehicle (methylcellulose in water, 1% w/v, Sigma Aldrich, St. Louis, Mo.) was administered via oral gavage at approximately 08:00 h and 16:00 h daily at various doses selected from 1, 3, 10, and 30 mg/kg.

C57BL/6NTac mice [2] = test: Imiquimod-induced skin inflammation, ears and back skin: RORγ-dependent gene expression and ex vivo stimulated whole blood IL-17A; assay type: in vivo, mouse
Excerpt: as §1

## Cc1c(CN2CCN(C(=O)C3CCCC3)[C@@H](C)C2)cc(Cl)cc1NC(=O)CCS(C)(=O)=O [Example 43, (S)—N-(5-chloro-3-((4-(cyclopentanecarbonyl)-3-methylpiperazin-1-yl)methyl)-2-methylphenyl)-3-(methylsulfonyl)propanamide]
C57BL/6NTac mice [1]; 10 mg/kg
  imiquimod-induced ear thickening: statistically significant reduction
C57BL/6NTac mice [1]; 30 mg/kg
  imiquimod-induced ear thickening: statistically significant reduction
C57BL/6NTac mice [1]; FIG. 1, dose not stated
  imiquimod-induced ear thickening, versus vehicle (FIG. 1): statistically significant reduction
C57BL/6NTac mice [2]; study A, 10 mg/kg oral
  IL17A protein expressed following ex vivo stimulation of whole blood: significantly reduced
  ear mRNA levels of IL17A, IL17F, or IL22: no significant reduction
C57BL/6NTac mice [2]; study B, 10 mg/kg oral
  IL17F mRNA levels in the ear skin: significantly reduced
  IL22 mRNA levels in the ear skin: significantly reduced
C57BL/6NTac mice [2]; study C
  IL17A mRNA levels in the ear skin: reached statistical significance
